This is an account of results in article PMC9354705, “Characterization of TR‐107, a novel chemical activator of the human mitochondrial protease ClpP” (Pharmacology Research & Perspectives, 2022).

The test system of one data set is MDA‐MB‐231 cells. In words: Cell viability (total cell count, Hoechst stain) in MDA‐MB‐231 cells. The settings on record: for IC50: Homo sapiens, MDA-MB-231, 72 h. It counts as cell-based, human.
The test system of another data set is SUM159 cells. In words: Cell viability (total cell count, Hoechst stain) in SUM159 cells. The format is cell-based. The settings on record: Homo sapiens, WT cells, 72 h, mean N = 3. As to the method: Human TNBC cell line SUM159 was a generous gift from Dr. Gary Johnson (the University of North Carolina at Chapel Hill). MDA‐MB‐231 (WT and CLPP‐KO) cells were provided by Dr. Stanley Lipkowitz (National Cancer Institute). MDA‐MB‐231 cells were cultured in RPMI‐1640 media (Gibco, 11875‐093) supplemented with 10% fetal bovine serum (FBS; VWR‐Seradigm, 97068‐085), and 1% antibiotic–antimycotic (anti/anti; ThermoFisher Scientific, 15240062). SUM159 cells were cultured in Dulbecco's modified Eagle's medium: Nutrient Mixture F‐12 (DMEM/F12; Gibco, 11330‐032) supplemented with 5% FBS, 5 μg/ml insulin (Gibco, 12585014), 1 μg/ml hydrocortisone, and 1% anti/anti. Cells were maintained at 5% CO2 and 37°C and periodically tested for mycoplasma.
Total cell counting assays were performed by seeding MDA‐MB‐231 cells (WT and ClpP‐KO; 4000 cells/well) or SUM159 (WT and ClpP‐KO; 1000 cells/well) in a 96‐well plate (Perkin Elmer, 6005050) and allowed to adhere overnight. The growth medium was then aspirated and replaced with 100 μl of growth medium supplemented with the drug at concentrations indicated in the figure or figure legends. Cells treated with vehicle control (0.1% DMSO, Sigma‐Aldrich D2650) were used as a negative control in all experiments, and cells were incubated with drug‐containing media for 24, 48, or 72 h as indicated in figure legends. Media was then aspirated and replaced with 100 μl Dulbecco's phosphate‐buffered saline (DPBS Gibco, 14190‐144) containing 1 μg/ml Hoechst stain (ThermoFischer Scientific, H3570) and allowed to incubate at 37°C for 30 min. The total cell number was then quantified using the Celigo Imaging Cytometer (Nexcelom).

Data set [1] has as its target purified recombinant human ClpP (Homo sapiens, UniProt Q16740). In words: In vitro ClpP activity assay (casein‐FITC degradation). It counts as biochemical. The conditions noted are these: relative to DMSO, read-out: EC50 (nM) ClpP activation. As to the method:
Measurement of in vitro activity of purified recombinant human ClpP was performed with a slight modification to the method previously described.[46] Briefly, ClpP activity was measured through the degradation of casein‐FITC (Sigma‐Aldrich, C0528) in the presence of indicated compounds. […] Enzyme and compounds were mixed and incubated in assay buffer for 30 min before adding casein‐FITC substrate. […] Linear slope of fluorescence signal was used to measure ClpP activity and normalized to DMSO control, expressed as RFU/h.

Data set [2] is described as follows: Pharmacokinetic analysis in ICR mice. The settings on record: male, mouse, plasma, ICR mice. It counts as in vivo, mouse. As to the method:
Samples were placed in tubes containing heparin sodium and stored on ice until centrifuged. Blood samples were centrifuged at 6800g for 6 min at 2–8°C within 1 h following sample collection and stored at −80°C. Proteins from plasma sample aliquots (20 μl) were precipitated by the addition of MeOH (400 μl) containing an internal standard (tolbutamide,100 ng/ml), vortexed for 1 min, and centrifuged at 18 000g for 7 min. The supernatant (200 μl) was transferred to 96 well plates for analysis.
Analysis of samples was conducted as follows. […] The PK parameters including Area Under the Curve (AUC[0–∞]) elimination half‐life (t 1/2), maximal plasma concentration (C max), and oral bioavailability (F%) were analyzed by noncompartmental methods.

A short description of data set [3]: Protein binding to plasma proteins (equilibrium dialysis). The format is in vitro ADME. The settings on record: mouse plasma, read-out: serum‐free fraction. As to the method:
Protein‐binding studies were performed by Eurofins Panlabs, Inc. This assay utilizes equilibrium dialysis in a microplate format, as previously described.[47] Briefly, this analysis is used to determine the bound and unbound fraction of the drug and calculate the percentage of the test compound binding to murine plasma proteins.
(In general: In equilibrium dialysis free small molecules cross a membrane that holds back macromolecules.)

Like-named read-outs stand apart in the source and are kept apart here.

Sequence of purified recombinant human ClpP (Q16740 57-277): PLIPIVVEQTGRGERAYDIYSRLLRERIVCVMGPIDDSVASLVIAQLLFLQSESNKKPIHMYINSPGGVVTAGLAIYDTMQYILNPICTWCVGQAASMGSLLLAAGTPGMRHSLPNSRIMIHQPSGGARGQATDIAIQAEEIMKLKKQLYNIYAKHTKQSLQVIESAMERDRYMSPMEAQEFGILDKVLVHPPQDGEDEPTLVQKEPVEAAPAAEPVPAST

`N#Cc1cccc(CN2CCc3ncn(Cc4ccc(Cl)cc4)c(=O)c3C2)c1` [TR‐107]: the IC50 (commonly the concentration at which inhibition is half-maximal) amounted to 23 nM with MDA‐MB‐231 cells (WT cells, Hoechst stain, mean N = 3, read-out: IC50 (nM) MDA-MB-231); 9.8 nM with MDA‐MB‐231 cells (media containing galactose, read-out: IC50 (nM) Galactose); 19 nM in the data set with MDA‐MB‐231 cells (media containing glucose, read-out: IC50 (nM) Glucose); 12 nM in the data set with SUM159 cells. The “shift of growth inhibition dose–response (IC50) glucose to galactose” value in the data set with MDA‐MB‐231 cells (galactose instead of glucose, MDA‐MB‐231, 72 h) is given as ~ 2 fold. The EC50 (commonly the concentration at which the effect is half-maximal) in data set [1] was 140 nM. Besides, the AUC – broadly, concentration integrated over time – in data set [2] (po, 10 mg/kg orally, read-out: exposure (AUC)) came to 2360 ng·h/mL. The AUC(0-inf) – broadly, total exposure, with the tail of the curve extrapolated – in data set [2] (10 mg/kg oral) amounted to 2360 ng·h/mL. Also, the Cmax in data set [2] (10 mg/kg oral, read-out: C max) amounted to 3.7 µM; in data set [2] (10 mg/kg oral, read-out: C max (mg/ml)) it was 0.00144 mg/mL. Moreover, the half-life in data set [2] (10 mg/kg oral, read-out: T 1/2 (converted)) is 54 min. In addition, the fraction unbound in data set [3] was found to be 0.1.
